# Structures can show the parent of a compound that is named as a salt.
# Assays:
# Assay in all cases: In vitro metalloprotease inhibition, fluorogenic MCA peptide substrate
# Format in all cases: biochemical
# Conditions in all cases: Inhibition Table B
# [1] = molecular target: MMP-3 (Homo sapiens, UniProt P08254)
# [2] = molecular target: T1, MMP-9 (Homo sapiens, UniProt P14780)
# T1 construct: made in house; host or cells: transfected HT-1080 cells (provided by Dr. Harold Welgus)
# Method: (§1) Briefly, 4-aminophenylmercuric acetate (APMA) or trypsin-activated MMPs were incubated with various concentrations of the inhibitor compound at room temperature for 5 minutes.
# MMP-1 expressed in transfected HT-1080 cells was provided by Dr. Harold Welgus of Washington University, St. Louis, Mo. The enzyme was also activated using APMA and was then purified over a hydroxamic acid column. Dr. Welgus also provided transfected HT-1080 cells that expressed MMP-9. Transfected cells that expressed MMP-2 were provided by Dr. Gregory Goldberg, also of Washington University. Further specifics for preparation and use of these enzymes can be found in the scientific literature describing these enzymes. See, for example, Enzyme Nomenclature, Academic Press, San Diego, Calif. (1992) and the citations therein, and Frije et al., J. Biol. Chem., 26(24): 16766–16773 (1994).
# (§2) MCA-ProLeuGlyLeuDpaAlaArgNH2, wherein MCA is methoxycoumarin and Dpa is 3-(2,4-dinitrophenyl)-L-2,3-diaminopropionyl alanine.
# (§3) The buffer used for assays contained 100 mM Tris-HCl, 100 mM NaCl, 10 mM CaCl2 and 0.05 percent polyethyleneglycol (23) lauryl ether at a pH value of 7.5.
# (§4) The ID50 values were calculated from those values.
# [3] = molecular target: T2, MMP-13 (Homo sapiens, UniProt P45452)
# T2 construct: made in house; host or cells: insect cells, baculovirus expression
# From the text: (§5) The expressed enzyme was purified first over a heparin agarose column and then over a chelating zinc chloride column. The proenzyme was activated by APMA for use in the assay.
# [4] = molecular target: T3, MMP-1 (Homo sapiens, UniProt P03956)
# T3 construct: made in house; host or cells: transfected HT-1080 cells (provided by Dr. Harold Welgus, Washington University)
# T3 sequence (P03956 100-469): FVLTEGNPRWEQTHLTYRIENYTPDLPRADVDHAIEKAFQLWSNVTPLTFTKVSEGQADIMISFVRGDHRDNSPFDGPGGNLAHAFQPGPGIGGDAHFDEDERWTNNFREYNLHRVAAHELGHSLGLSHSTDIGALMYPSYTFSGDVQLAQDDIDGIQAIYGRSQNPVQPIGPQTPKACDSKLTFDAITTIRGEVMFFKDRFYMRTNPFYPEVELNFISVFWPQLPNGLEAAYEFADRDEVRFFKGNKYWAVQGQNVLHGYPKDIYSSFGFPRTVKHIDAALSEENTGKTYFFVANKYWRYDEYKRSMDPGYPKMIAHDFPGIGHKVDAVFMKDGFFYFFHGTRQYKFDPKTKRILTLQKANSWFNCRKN
# From the text: as §5
# [5] = molecular target: MMP-8 (Homo sapiens, UniProt P22894)
# Method: as §1, §2, §3, §4
# [6] = molecular target: MT1-MMP (Homo sapiens, UniProt P50281)
# Method: as §1, §2, §3, §4
# [7] = molecular target: T4, MMP-2 (Homo sapiens, UniProt P08253)
# T4 construct: made in house; provided by Dr. Gregory Goldberg, Washington University
# T4 sequence (P08253 110-660): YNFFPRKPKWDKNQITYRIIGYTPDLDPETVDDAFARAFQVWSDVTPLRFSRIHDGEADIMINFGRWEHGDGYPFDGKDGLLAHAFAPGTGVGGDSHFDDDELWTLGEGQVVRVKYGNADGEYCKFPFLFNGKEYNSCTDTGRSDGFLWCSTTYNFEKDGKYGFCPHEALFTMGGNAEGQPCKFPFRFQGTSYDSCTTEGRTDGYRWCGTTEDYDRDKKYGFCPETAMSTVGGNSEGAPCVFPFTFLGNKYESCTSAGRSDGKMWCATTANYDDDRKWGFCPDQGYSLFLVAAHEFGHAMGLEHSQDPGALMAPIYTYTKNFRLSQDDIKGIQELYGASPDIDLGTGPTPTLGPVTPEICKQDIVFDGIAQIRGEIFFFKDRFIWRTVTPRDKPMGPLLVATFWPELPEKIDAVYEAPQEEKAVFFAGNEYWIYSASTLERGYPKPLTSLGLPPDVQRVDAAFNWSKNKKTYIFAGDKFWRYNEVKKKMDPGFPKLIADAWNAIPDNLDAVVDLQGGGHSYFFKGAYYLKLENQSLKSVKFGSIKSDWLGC
# From the text: as §5
# T1 sequence (P14780 107-707 limits assumed): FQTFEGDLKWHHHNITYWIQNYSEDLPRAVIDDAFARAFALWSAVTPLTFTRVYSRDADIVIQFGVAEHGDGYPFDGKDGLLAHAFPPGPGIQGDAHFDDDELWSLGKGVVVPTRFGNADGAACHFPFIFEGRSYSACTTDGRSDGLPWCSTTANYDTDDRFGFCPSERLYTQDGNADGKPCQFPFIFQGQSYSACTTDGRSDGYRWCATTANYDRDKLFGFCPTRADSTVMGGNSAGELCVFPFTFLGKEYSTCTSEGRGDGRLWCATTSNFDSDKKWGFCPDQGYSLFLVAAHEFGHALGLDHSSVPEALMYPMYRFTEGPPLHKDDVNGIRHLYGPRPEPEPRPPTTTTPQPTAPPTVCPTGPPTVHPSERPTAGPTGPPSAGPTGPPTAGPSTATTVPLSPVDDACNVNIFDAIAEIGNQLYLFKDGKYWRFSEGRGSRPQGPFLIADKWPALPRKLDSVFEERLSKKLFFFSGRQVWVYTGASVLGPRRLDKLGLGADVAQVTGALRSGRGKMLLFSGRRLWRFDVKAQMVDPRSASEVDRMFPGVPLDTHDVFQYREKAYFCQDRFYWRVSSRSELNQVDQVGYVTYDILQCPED
# Sequence of MMP-3 (P08254 100-477, species assumed): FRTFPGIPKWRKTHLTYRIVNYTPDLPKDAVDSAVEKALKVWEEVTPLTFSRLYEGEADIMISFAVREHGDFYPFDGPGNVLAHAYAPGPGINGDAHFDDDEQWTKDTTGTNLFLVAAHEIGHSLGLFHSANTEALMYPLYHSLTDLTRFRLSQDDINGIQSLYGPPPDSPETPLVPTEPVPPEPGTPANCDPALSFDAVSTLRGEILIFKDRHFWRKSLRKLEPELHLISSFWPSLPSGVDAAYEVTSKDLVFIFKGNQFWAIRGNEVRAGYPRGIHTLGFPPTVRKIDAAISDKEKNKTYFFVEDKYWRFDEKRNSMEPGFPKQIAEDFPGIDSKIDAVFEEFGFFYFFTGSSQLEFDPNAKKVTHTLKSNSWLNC
# Sequence of MMP-8 (P22894 101-467, species assumed): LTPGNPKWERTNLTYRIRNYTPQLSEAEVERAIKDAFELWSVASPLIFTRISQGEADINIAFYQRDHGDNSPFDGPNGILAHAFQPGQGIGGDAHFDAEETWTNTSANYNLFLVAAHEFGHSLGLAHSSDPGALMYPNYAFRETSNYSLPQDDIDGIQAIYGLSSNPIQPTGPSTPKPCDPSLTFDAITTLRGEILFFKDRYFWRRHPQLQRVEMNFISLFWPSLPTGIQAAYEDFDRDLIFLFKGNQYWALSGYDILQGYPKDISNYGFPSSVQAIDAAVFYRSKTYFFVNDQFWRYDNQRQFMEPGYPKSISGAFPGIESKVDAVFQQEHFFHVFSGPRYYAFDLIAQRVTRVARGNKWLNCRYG
Structure (SMILES),IC50 [1],IC50 [2],IC50 [3],IC50 [4],IC50 [5],IC50 [6],IC50 [7]
COc1ccc(OC2CCN(S(=O)(=O)c3ccc(OC)c(OC)c3C(=O)NO)CC2)cc1 [Example 45],900 nM,3 nM,13.9 nM,> 10000 nM,11.4 nM,300 nM,1.8 nM
"COc1ccc(S(=O)(=O)N2CCC(Oc3ccc(-c4ccccc4C(F)(F)F)cc3)CC2)c(C(=O)NO)c1OC [Example 38, N-Hydroxy-2,3-dimethoxy-6-[[4-[[2′-(trifluoromethyl)[1,1′-biphenyl]-4-yl]oxy]-1-piperidinyl]sulfonyl]benzamide]",–,–,82 nM,–,1700 nM,–,20 nM
"COc1ccc(S(=O)(=O)N2CCC(Sc3ccccc3)CC2)c(C(=O)NO)c1OC [Example 24, N-Hydroxy-2,3-dimethoxy-6-[[4-(phenylthio)-1-piperidinyl]sulfonyl]benzamide]",400 nM,10 nM,3 nM,> 10000 nM,10.7 nM,25.4 nM,0.9 nM
CCOc1ccccc1-c1ccc(OC2CCN(S(=O)(=O)c3ccc(OC)c(OC)c3C(=O)NO)CC2)cc1 [Example 40],–,–,50 nM,–,4400 nM,–,80 nM
"CCCCOc1ccc(OC2CCN(S(=O)(=O)c3ccc(OC)c(OC)c3C(=O)NO)CC2)cc1 [Example 54, 6-[[4-(4-Butoxyphenoxy)-1-piperidinyl]sulfonyl]-N-hydroxy-2,3-dimethoxybenzamide]",31.6 nM,2 nM,1.6 nM,> 10000 nM,70 nM,200 nM,0.8 nM
"COc1ccc(S(=O)(=O)N2CCC(Oc3ccc4c(c3)OCO4)CC2)c(C(=O)NO)c1OC [Example 50, 6-[[4-(1,3-Benzodioxole-5-yloxy)-1-piperinyl]sulfonyl]-N-hydroxy-2,3-dimethoxybenzamide]",1300 nM,9 nM,18.6 nM,> 10000 nM,12.2 nM,270 nM,1.1 nM
"COc1ccc(S(=O)(=O)N2CCC(Oc3ccc(-c4cccc(C(F)(F)F)c4)cc3)CC2)c(C(=O)NO)c1OC [Example 27, N-Hydroxyl-2,3-dimethoxy-6-[[4-[[3′-(trifluoromethyl)[1,1′-biphenyl]-4-yl]oxy]-1-piperidinyl]sulfonyl]benzamide]",300 nM,520 nM,3 nM,> 10000 nM,210 nM,690 nM,3.3 nM
"COc1ccc(S(=O)(=O)N2CCN(Cc3ccccc3)CC2)c(C(=O)NO)c1OC [Example 52, N-Hydroxy-2,3-dimethoxy-6-[[4-(phenylmethyl)-1-piperazinyl]sulfonyl]benzamide, monohydrochloride]",–,–,4000 nM,–,> 10000 nM,–,1500 nM
"COc1ccc(S(=O)(=O)N2CCN(c3ccc(C(F)(F)F)cc3)CC2)c(C(=O)NO)c1OC [Example 26, N-Hydroxy-2,3-dimethoxy-6-[[4-[4-(trifluoromethyl)phenyl]-1-piperazinyl]sulfonyl]benzamide]",1750 nM,970 nM,40 nM,> 10000 nM,37.2 nM,1920 nM,6.5 nM
COc1ccccc1-c1ccc(OC2CCN(S(=O)(=O)c3ccc(OC)c(OC)c3C(=O)NO)CC2)cc1 [Example 22],170 nM,300 nM,5.5 nM,–,800 nM,2500 nM,15.5 nM
COc1ccc(C(C)C)cc1-c1ccc(OC2CCN(S(=O)(=O)c3ccc(OC)c(OC)c3C(=O)NO)CC2)cc1 [Example 39],–,–,100 nM,–,400 nM,–,120 nM
COc1ccc(S(=O)(=O)N2CCC(Oc3ccc(OC(F)(F)F)cc3)CC2)c(C(=O)NO)c1OC [Example 33],100 nM,1.5 nM,5 nM,> 10000 nM,–,360 nM,0.9 nM

# Reference: patent publication US7115632B1, “Sulfonyl aryl or heteroaryl hydroxamic acid compounds” (priority 1999, dated 2006)
